In publication PMC9098913, “In vitro reconstitution of Escherichia coli divisome activation” (Nature Communications, 2022):
Read-outs that look alike come from different tables or passages of the source.

Legend:
FtsZ [1] = system: FtsZ;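 for effect on FtsZ pattern reorganization dynamics: FtsZ filament patterns imaged by time-lapse TIRF microscopy, one frame per 2 s, with ATP and GTP, Pearson correlation of first frame versus later frames, monoexponential fit, slower decay means persistent structures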
Procedure: (§1) Subsequently, the chamber was washed 6x with reaction buffer, to remove bulk peptide. To visualize colocalization with either FtsZ or FtsA, either a mix of FtsA and Alexa488-FtsZ or Cy3-FtsA and FtsZ was added. […] The time-lapse videos were recorded for 10 min after the addition, with one frame per 2 s.
Time-lapse videos were first intensity-corrected and contrast-enhanced to avoid bleaching effects and simplify subsequent analysis. To remove contributions of X–Y drift, the videos were processed with the Linear Stack Alignment with SIFT plugin. Proper alignment was checked with the 3TP align plugin (J. A. Parker; Beth Israel Deaconess Medical Center, Boston). Subsequently, regions of interest (ROIs) in the center of the stacks were chosen for colocalization analysis. The Pearson’s correlation coefficient (PCC) was quantified with the Image CorrelationJ 1o plugin. To extract information about the relative ratio of FtsZ/FtsA molecules (slope of linear regression), we also used the Image CorrelationJ 1o plugin. As an output, the plugin provides a scatterplot of FtsZ vs FtsA intensities, to which we fitted a linear slope y=k⋅x+d , where k is the slope and d the offset. The slope was used as an estimate for the ratio of FtsA molecules below FtsZ filaments.

FtsZ [2] = system: FtsZ; remark: listed apart in the source;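 for effect on FtsZ pattern reorganization dynamics: FtsZ filament patterns imaged by time-lapse TIRF microscopy, one frame per 2 s, with ATP and GTP, Pearson correlation of first frame versus later frames, monoexponential fit, slower decay means persistent structures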
Procedure: as §1
Treadmilling dynamics, were quantified using an automated image analysis protocol previously developed by our group. To visualize colocalization of the co-treadmilling FtsZ & FtsA filaments, we used dual-colour videos obtained at an acquisition rate of one frame per 2 s. The two channels were aligned using FIJI’s 3TP align plugin. Both channels were then subjected to the image subtraction protocol and colocalization was measured as described above.

FtsA/Z co-filaments = biological target: T1, FtsA/Z co-filaments (Escherichia coli, UniProt P0A9A6+P0ABH0, R286W); format: biochemical, E. coli; conditions: all concentrations of FtsA R286W
T1 construct: TwinStrep-SUMO (N, cleaved yes); made in house; host or cells: E. coli BL21
T1 sequence (P0A9A6 whole entry): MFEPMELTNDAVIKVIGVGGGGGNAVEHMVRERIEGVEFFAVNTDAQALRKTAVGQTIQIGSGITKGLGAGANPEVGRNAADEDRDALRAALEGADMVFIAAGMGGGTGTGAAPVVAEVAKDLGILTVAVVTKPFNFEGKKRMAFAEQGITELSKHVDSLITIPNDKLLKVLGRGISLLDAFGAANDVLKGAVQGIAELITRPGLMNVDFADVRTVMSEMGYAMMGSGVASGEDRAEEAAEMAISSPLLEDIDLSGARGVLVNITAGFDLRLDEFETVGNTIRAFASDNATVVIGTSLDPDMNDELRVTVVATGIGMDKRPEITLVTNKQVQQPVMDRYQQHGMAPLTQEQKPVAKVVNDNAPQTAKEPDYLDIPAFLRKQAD
T1 sequence (P0ABH0 whole entry R286W): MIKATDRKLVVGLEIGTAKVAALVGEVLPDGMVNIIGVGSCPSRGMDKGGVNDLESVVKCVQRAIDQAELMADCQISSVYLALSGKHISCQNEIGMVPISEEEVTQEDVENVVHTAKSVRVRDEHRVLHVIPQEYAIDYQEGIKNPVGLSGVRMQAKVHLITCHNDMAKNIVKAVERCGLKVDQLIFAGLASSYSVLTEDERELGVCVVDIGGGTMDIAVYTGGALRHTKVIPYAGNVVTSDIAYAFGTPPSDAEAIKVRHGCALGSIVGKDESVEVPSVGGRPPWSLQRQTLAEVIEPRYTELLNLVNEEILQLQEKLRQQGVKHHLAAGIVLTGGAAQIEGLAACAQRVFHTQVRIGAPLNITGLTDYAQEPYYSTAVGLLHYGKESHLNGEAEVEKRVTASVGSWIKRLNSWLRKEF
Procedure: By fitting an exponential function to the increase of the PCC with time, we were able to extract the corresponding recruitment rate (Fig. 2f, g).
as §1

FtsZ-FtsA WT filaments = biological target: T2, FtsZ-FtsA WT filaments (Escherichia coli, UniProt P0A9A6+P0ABH0); format: binding, E. coli; conditions: 0.2 µM FtsA WT, 1.25 µM FtsZ, […] Tris-NTA; p-value 0.03
T2 construct: TwinStrep-SUMO (N, cleaved yes); made in house; host or cells: E. coli BL21
T2 sequence (P0A9A6 whole entry): as the sequence (P0A9A6 whole entry) above
T2 sequence (P0ABH0 whole entry): as the sequence (P0ABH0 whole entry R286W) above, with W286R counted along it
Excerpt: Single molecule time lapses were acquired every 32 or 51 ms, with exposure times of 30 and 50 ms, respectively.
Single-molecule experiments with FtsNcytowere tracked using the TrackMate plugin from ImageJ[43]. Non-moving particles and short tracks (below 1 s) were filtered out and the data exported as.xml files. […] The packing coefficient is defined as the length of the trajectory in a short time window and the surface area that it occupies. […] This approach is adapted from Renner et al. and implemented here as an easy-to-use Python script. The packing coefficient is computed for each time point as:1 p=∑ii+n−1xi+1−xi^2−yi+1−yi^2/Si^2 Where xi,yi are the coordinates at time i, xi+1, yi+1 are the coordinates at time i+1, n is the length of the time window, and Si is the surface area of the convex hull of the trajectory segment between time points i and i+n. Periods of confinement are identified by setting a threshold corresponding to a certain confinement area size, since p scales with the size of the confinement area. Then it is possible to calculate the frequency and duration of confinement periods and to localize them in space. Each position will have a characteristic p, considering the behaviour of the following n positions. This approach overcomes the limitations of using MSD calculation, which overlooks transient confinement periods. […]

FtsZ [3] = conditions: either version of FtsA
Procedure: Additionally, the reaction chamber contained 4 mM ATP and 4 mM GTP, as well as a scavenging system to minimize photobleaching effects: 30 mM d-glucose, 0.050 mg ml^−1 Glucose Oxidase, 0.016 mg ml^−1 Catalase, 1 mM DTT and 1 mM Trolox. Prior addition of all components a corresponding buffer volume was removed from the chamber to obtain a total reaction volume of 100 µl. The dynamic protein pattern was monitored by time-lapse TIRF microscopy at one frame per 2 s and 50 ms exposure time.
To measure reorganization dynamics of FtsZ filaments, we used a temporal correlation analysis based on the Image CorrelationJ 1o plugin. We quantified the PCC between the first frame to subsequent frames with increasing time lag (∆t). The decrease in the PCC was plotted against ∆t to obtain autocorrelation curves. Slower decay indicates more persistent structures. The rates of decay were extracted by fitting monoexponential decay to the autocorrelation curves y=a⋅e^−b⋅t+k , where a is the starting point, b is the decay rate and k is the final offset. The half time of the monoexponential decay was calculated via the decay rate.

[4] = FtsA R286W, even at concentrations above 0.4 µM

## CSCC[C@H](NC(=O)[C@@H](N)CS)C(=O)N[C@@H](C)C(=O)N[C@@H](CCC(N)=O)C(=O)N[C@@H](CCCNC(=N)N)C(=O)N[C@@H](CC(=O)O)C(=O)N[C@@H](Cc1ccc(O)cc1)C(=O)N[C@H](C(=O)N[C@@H](CCCNC(=N)N)C(=O)N[C@@H](CCCNC(=N)N)C(=O)N[C@@H](CO)C(=O)N[C@@H](CCC(N)=O)C(=O)N1CCC[C@H]1C(=O)N[C@@H](C)C(=O)N1CCC[C@H]1C(=O)N[C@@H](CO)C(=O)N[C@@H](CCCNC(=N)N)C(=O)N[C@@H](CCCNC(=N)N)C(=O)N[C@@H](CCCCN)C(=O)N[C@@H](CCCCN)C(=O)N[C@@H](CO)C(=O)N[C@H](C(=O)N[C@@H](CO)C(=O)N[C@@H](CCCNC(=N)N)C(=O)N[C@@H](CCCCN)C(=O)N[C@@H](CCCCN)C(=O)N[C@@H](CCC(N)=O)C(=O)N[C@@H](CCCNC(=N)N)C(=O)N[C@@H](CC(N)=O)C(=O)N[C@@H](CC(C)C)C(=O)N1CCC[C@H]1C(=O)N[C@@H](C)C(=O)N[C@H](C(=O)N[C@@H](Cc1c[nH]cn1)C(=O)N[C@@H](Cc1c[nH]cn1)C(=O)N[C@@H](Cc1c[nH]cn1)C(=O)N[C@@H](Cc1c[nH]cn1)C(=O)N[C@@H](Cc1c[nH]cn1)C(=O)N[C@@H](Cc1c[nH]cn1)C(=O)O)C(C)C)[C@@H](C)O)C(C)C [FtsNcyto]
FtsZ [1]; 0.4 µM FtsA R286W, […] Tris-NTA, 1.25 µM FtsZ, p-value 4.92 × 10^−4
  PCC FtsNcyto/FtsZ: 0.70 ± 0.02
FtsZ [1]; 0.4 µM FtsA WT, […] Tris-NTA, 1.25 µM FtsZ, p-value 4.92 × 10^−4
  PCC FtsNcyto/FtsZ: 0.30 ± 0.05
FtsZ [1]; [4]
  PCC FtsNcyto/FtsZ: > 0.6
FtsZ [2]; 0.4 µM FtsA R286W, […] Tris-NTA, 1.25 µM FtsZ, p-value 3.79 × 10^−3
  PCCdiff FtsNcyto/FtsZ: 0.47 ± 0.05
FtsZ [2]; 0.4 µM FtsA WT, […] Tris-NTA, 1.25 µM FtsZ, p-value 3.79 × 10^−3
  PCCdiff FtsNcyto/FtsZ: 0.17 ± 0.04
FtsZ [2]; [4]
  PCCdiff FtsNcyto/FtsZ: > 0.6
FtsA/Z co-filaments
  FtsNcyto enrichment saturated within: ≤ 1 min
FtsZ-FtsA WT filaments
  frequency of transient confinement: 57.99 ± 7.29%
FtsZ [3]
  effect on FtsZ pattern reorganization dynamics: significantly slows down
